Here are results for 20 compounds from patent publication US20260256789A1, “METHODS FOR TREATMENT OF CANCER” (Frontier Medicines Corporation, priority 2022, published 2026).

Each structure is given as a SMILES string. Bounds are passed on as bounds.

As a reminder, the IC50 is the concentration needed to halve the response being measured. The low end stands for greater potency in that assay, the high end for weaker potency in that assay.

T1 sequence (P01116 1-169 isoform P01116-2 G12C/C51S/C80L/C118S): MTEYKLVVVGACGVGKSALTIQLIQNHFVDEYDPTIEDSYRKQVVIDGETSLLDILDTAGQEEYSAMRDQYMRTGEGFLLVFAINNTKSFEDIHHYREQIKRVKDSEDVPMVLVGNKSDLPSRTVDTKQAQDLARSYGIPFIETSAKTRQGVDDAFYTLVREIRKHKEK

The assay concerns the target T1, KRAS G12C (GMPPNP-loaded) and cRAF Ras-binding domain (Homo sapiens, UniProt P01116, C118S/C51S/C80L/G12C).
T1 construct: truncated version comprising amino acids 1-169
The experiment in a line: Inhibition of KRAS G12C and cRAF binding (AlphaScreen). To be noted: KRAS G12C preloaded with GTP analogue GMPPNP, 2 hours preincubation. The method in brief: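 AlphaScreen used biotin-AviTag KRAS G12C (Cys-light, aa 1-169; 0.5 nM), GMPPNP-loaded, preincubated 2 h with compound (top 50 μM, 1:3, 10 points, 2% DMSO) in pH 7.4 Hepes buffer with 10 μM GMPPNP. GST-cRAF RBD (aa 50-131; 0.75 nM) plus beads were then added for 60-90 min at room temperature, and IC50 came from a 4-parameter fit.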
Regarding `C=CC(=O)N1CC[C@@H](N(C)c2nc(OC[C@@]34CCCN3C[C@H](F)C4)nc3c(F)c(-c4c(O)cccc4Cl)ncc23)C1` [Example 229], the half-maximal inhibitory concentration (IC50) is at least 500 nM.
Take `C=CC(=O)N1CC[C@@H](N(C)c2nc(OC[C@@]34CCCN3C[C@H](F)C4)nc3c(F)c(-c4cc(OC)cc5nccnc45)ncc23)C1` [Example 230]: the half-inhibitory concentration (IC50) was at least 500 nM.
With `CN(c1nc(OC[C@@]23CCCN2C[C@H](F)C3)nc2c(F)c(-c3cccc(Cl)c3C3CC3)ncc12)[C@@H]1CCN(C(=O)/C=C/CN2C[C@@H]3C[C@H]2CO3)C1` [Example 231] the figure was 10 to 100 nM; with `C=CC(=O)N1CC[C@@H](N(C)c2nc(OC[C@@]34CCCN3C[C@H](F)C4)nc3c(F)c(-c4c(C)cc(F)c5[nH]ncc45)ncc23)C1` [Example 232], at least 500 nM; with `C=CC(=O)N1CC[C@@H](N(C)c2nc(OC[C@@]34CCCN3C[C@H](F)C4)nc3c(F)c(-c4ccc(O)cc4C4CC4)ncc23)C1` [Example 233], at least 500 nM.
`C=CC(=O)N1CC[C@@H](N(C)c2nc(OC[C@@]34CCCN3C[C@H](F)C4)nc3c(F)c(-c4cccn5nccc45)ncc23)C1` [Example 234] gave an IC50 of at least 500 nM.
Under `CN(c1nc(OC[C@@]23CCCN2C[C@H](F)C3)nc2c(F)c(-c3cccc(Cl)c3C3CC3)ncc12)[C@@H]1CCN(C(=O)C#C[C@@]2(C)CCCN2C)C1` [Example 235] stands 10 to 100 nM.
For the compound `C=CC(=O)N1CC[C@@H](N(C)c2nc(OC[C@@]34CCCN3C[C@H](F)C4)nc3c(F)c(-c4cccc(Cl)c4C4CC4)ncc23)[C@H]1C` [Example 236], the half-inhibitory concentration (IC50) lay within 100 to 500 nM.
Under `C=CC(=O)N1CC[C@H](O)[C@@H](N(C)c2nc(OC[C@@]34CCCN3C[C@H](F)C4)nc3c(F)c(-c4cccc(Cl)c4C4CC4)ncc23)C1` [Example 237] stands at least 500 nM.
With `CN(c1nc(OC[C@@]23CCCN2C[C@H](F)C3)nc2c(F)c(-c3cccc(Cl)c3C3CC3)ncc12)[C@@H]1CCN(C(=O)/C=C/CN2CC[C@H](F)C2)C1` [Example 238] the figure was 10 to 100 nM; with `Cc1cc(N)nc(-c2ncc3c(N(C)[C@@H]4CCN(C#N)C4)nc(OC[C@@]45CCCN4C[C@H](F)C5)nc3c2F)c1C(F)(F)F` [Example 239], below 10 nM.
With `C=CC(=O)N1CC[C@@H](N(C)c2nc(OC[C@@]34CCCN3C[C@H](F)C4)nc3c(F)c(-c4cncc(Cl)c4C4CC4)ncc23)C1` [Example 240], the concentration for half-maximal inhibition (IC50) was at least 500 nM.
With `CN(c1nc(OC[C@@]23CCCN2C[C@H](F)C3)nc2c(F)c(-c3cccc(Cl)c3C3CC3)ncc12)[C@@H]1CCN(C(=O)/C=C/CN2[C@@H]3CC[C@H]2COC3)C1` [Example 241], the IC50 lay within 10 to 100 nM.
In turn, `CN1CC[C@@H]1/C=C/C(=O)N1CC[C@@H](N(C)c2nc(OC[C@@]34CCCN3C[C@H](F)C4)nc3c(F)c(-c4cccc(Cl)c4C(F)(F)F)ncc23)C1` [Example 242] had an IC50 of 10 to 100 nM.
`C=CC(=O)N1C[C@H](F)[C@@H](N(C)c2nc(OC[C@@]34CCCN3C[C@H](F)C4)nc3c(F)c(-c4cc(O)cc(Cl)c4C4CC4)ncc23)C1` [Example 243] yielded an IC50 below 10 nM.
With `C=CC(=O)N1CC[C@@H](N(C)c2nc(OC[C@@]34CCCN3C[C@H](F)C4)nc3c(F)c(-c4cccc5sc(N)nc45)ncc23)C1` [Example 244] the figure was 10 to 100 nM; with `CN(c1nc(OC[C@@]23CCCN2C[C@H](F)C3)nc2c(F)c(-c3cccc(Cl)c3C3CC3)ncc12)[C@@H]1CCN(C(=O)/C=C/CN2C[C@H]3C[C@@H]2CO3)C1` [Example 245], 10 to 100 nM.
Under `C=CC(=O)N1CC[C@@H](N(C)c2nc(OC[C@@]34CCCN3C[C@H](F)C4)nc3c(F)c(-c4ncn5ccccc45)ncc23)C1` [Example 246] stands at least 500 nM; under `Cc1cc(/C=C/C(=O)N2CC[C@@H](N(C)c3nc(OC[C@@]45CCCN4C[C@H](F)C5)nc4c(F)c(-c5cccc(Cl)c5C5CC5)ncc34)C2)nc(C)n1` [Example 247], 100 to 500 nM.
In turn, `C=CC(=O)N1CC[C@@H](N(C)c2nc(OC[C@@]34CCCN3C[C@H](F)C4)nc3c(F)c(-c4cc(O)cc(Cl)c4C(F)(F)F)ncc23)C1` [Example 248] had a concentration for half-maximal inhibition (IC50) below 10 nM.
